# Experimental data from patent US20190175479A1, “Zinc-Amino Acid-Tripolyphosphate Complexes” (Colgate-Palmolive Company, priority 2017, published 2019).
# Columns and labels:
# Type in all cases: physicochemical
# [1] = Titration of zinc chloride with sodium tripolyphosphate, clarity of solution; settings: zinc chloride titrated with sodium tripolyphosphate; solution cloudy until about 1 equivalent of STPP was added
# Method: In the single component titration procedure, a scintillation vial (20 mL) is loaded with 2 mL of a 0.25M zinc nitrate solution and 6 mL of distilled water. The vial is stirred on a magnetic stir plate with an immersed pH electrode. Initial pH is measured. While stirring, the solution is slowly titrated with a 0.75M aqueous solution of arginine in small portions (e.g., 0.01-0.1 mL). In between each addition, the solution is allowed to equilibrate and the pH is recorded. At the conclusion of the experiment, the molar equivalent of added arginine is plotted against the pH. The slope is calculated and plotted as well to highlight the inflection points, which indicate where complex formation takes places.
# Substantially the same single-component titration procedure is also performed in a titration of 0.75M zinc chloride with 0.25M sodium tripolyphosphate.
# [2] = Dilution experiment (precipitation on dilution with water); settings: solutions in distilled water, ZLP 200 mg/mL, ZLC 185 mg/mL; diluted with water at ratios from 1:2 to 1:16; ZLC result at dilutions of 1:8 to 1:16
# Method: (§1) A solution of ZLP in distilled water at a concentration of 200 mg/mL (23.6 wt % zinc) is prepared. For comparison, a solution of zinc-lysine-chloride complex (ZLC) ([Zn(lysine)2Cl]Cl) is prepared at a concentration of 185 mg/mL. Both solutions are diluted with water at ratios from 1:2 to 1:16.
# [3] = Foaming experiment with sodium lauryl sulfate; settings: 7.25 wt % complex (0.85 wt % zinc) with 2 wt % sodium lauryl sulfate in distilled water; vial shaken ten times
# Method: A solution of ZLP in distilled water at a concentration of 7.25 wt % (0.85 wt % zinc) containing also 2 wt % of sodium lauryl sulfate is compared to a solution of ZLC and sodium lauryl sulfate at the same concentrations and to a solution of sodium lauryl sulfate. Each solution is sealed in a screw-cap vial and shaken back and forth ten times. […] A similar experiment is conducted using an 1:10 aqueous slurry of the toothpaste formula of Example 1 compared to a control toothpaste having the same composition except for the absence of ZLP (in the control, the 7.25% ZLP is replaced by 0.5 wt % TSPP and 6.75 wt % sorbitol, 70%).
# [4] = Polyphosphate experiment (mixing with STPP solution); settings: 5 mL of aqueous complex solution mixed with 5 mL of 2 wt % STPP solution
# Method: Aqueous solutions of ZLP and ZLC, respectively, are prepared as described above, and 5 mL of each of these solutions is mixed with 5 mL STPP solution at a concentration of 2 wt %. […] Thus, ZLP complex is stable in the presence of additional STPP, whereas other zinc complexes may not be.
# [5] = Storage of undiluted solution at room temperature, repeat LC-MS analysis; settings: undiluted 200 mg/mL solution stored at room temperature for one month
# Method: About 6.0 g of lysine hydrochloride is dissolved in 250 ml distilled water with stirring at room temperature. About 12.0 g sodium tripolyphosphate pentabasic is added with stirring, followed by either 50% aqueous sodium hydroxide solution or concentrated hydrochloric acid solution to adjust the pH to either 5, 6, 7, 8, 9 or 10. To the resulting solution, about 2.68 g of zinc oxide is slowly added. The mixture is then allowed to stir at either room temperature, 50° C. or 80° C., for 2 hours. The reaction is monitored by liquid chromatography-mass spectrometry (LC-MS, using electrospray ionization-tandem mass spectrometer running positive ion mode). LC separation is achieved on Agilent Zorbax SB-Aq column (2.1 mm i.d.×50 mm, 3.5 μm particle size), running 5% water/methanol at 70 μL/minute with 1 μL injection volume.
# as §1
Compound,solubility in aqueous titration solution [1],precipitation upon dilution with water [2],foaming of solution with SLS relative to aqueous SLS solution [3],appearance after mixing with STPP solution [4],change of LC-MS spectrum after storage [5]
O=P([O-])([O-])OP(=O)([O-])OP(=O)([O-])[O-].[Na+].[Na+].[Na+].[Zn+2] [Na3Zn(P3O10)],soluble,,,,
"NCCCCC(N)C(=O)O.NCCCCC(N)C(=O)O.[Cl-].[Cl-].[Zn+2] (stereo not drawn) [ZLC, [Zn(lysine)2Cl]Cl]",,significant precipitation of insoluble material,significantly inhibited,produces a white precipitate,
[Zn(C6H14N2O2)(P3O10)Na4]^+Cl^− [ZLP],,no precipitation occurs at any dilution,comparable,remains clear and homogenous,has not changed
O=P([O-])([O-])OP(=O)([O-])OP(=O)([O-])[O-].[Na+].[Zn+2].[Zn+2] [NaZn2(P3O10)],poorly soluble,,,,
